PubChem BioAssay AID1963963 (Molecular Pharmacology Branch, DTP, NCI, 2024)

System: 958667-338-R-J2-PDC tumor spheroids viability
Test: Anticancer human tumor 958667-338-R-J2-PDC patient-derived colon adenocarcinoma cell line growth inhibition [PI3K]
Details: spheroids with HUVEC and MSC; for IC50: curve of first compound; for viability, T/C: stronger effect = lower value
In short: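 Tumor cells were combined with HUVEC and MSCs into spheroids, then dosed with PI3K-inhibitor combinations over half-log ranges capped near clinical Cmax or 10 microM.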

[1] = second compound 0.0316 µM, first compound 0.0316 µM
[2] = second compound 0.0316 µM, first compound 0.1 µM
[3] = second compound 0.1 µM, first compound 0.0316 µM
[4] = second compound 0.1 µM, first compound 0.1 µM
[5] = second compound 0.316 µM, first compound 0.0316 µM
[6] = second compound 0.316 µM, first compound 0.1 µM
[7] = second compound 1 µM, first compound 0.0316 µM
[8] = second compound 1 µM, first compound 0.1 µM
[9] = second compound 3.16 µM, first compound 0.0316 µM
[10] = second compound 3.16 µM, first compound 0.1 µM
[11] = second compound 10 µM, first compound 0.0316 µM
[12] = second compound 10 µM, first compound 0.1 µM
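Note: spheroids exposed to compounds for seven days before readout.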

For `CC(C)n1nc(-c2ccc3oc(N)nc3c2)c2c(N)ncnc21` + Cc1nc(NC(=O)N2CCCC2C(N)=O)sc1-c1ccnc(C(C)(C)C(F)(F)F)c1, the IC50 (second compound 0.0316 µM) was 61.7 nM, the IC50 (second compound 0.1 µM) was 60.6 nM and the IC50 (second compound 0.316 µM) was 59.5 nM. The IC50 (second compound 1 µM) was 41.9 nM, the IC50 (second compound 3.16 µM) was 30.2 nM and the IC50 (second compound 10 µM) was 2.2 nM. It also gave a viability, T/C (second compound 0.0316 µM, first compound 0.000316 µM) of 94%, a viability, T/C (second compound 0.0316 µM, first compound 0.001 µM) of 91.7% and a viability, T/C (second compound 0.0316 µM, first compound 0.00316 µM) of 80.9%. For the same compound, the viability, T/C (second compound 0.0316 µM, first compound 0.01 µM) was 77.8%, the viability, T/C [1] was 61.1% and the viability, T/C [2] was 41.4%. The viability, T/C (second compound 0.1 µM, first compound 0.000316 µM) was 102%, the viability, T/C (second compound 0.1 µM, first compound 0.001 µM) was 85.8% and the viability, T/C (second compound 0.1 µM, first compound 0.00316 µM) was 108%. The viability, T/C (second compound 0.1 µM, first compound 0.01 µM) was 73.7%, the viability, T/C [3] was 76.5% and the viability, T/C [4] was 33.1%. For the same compound, the viability, T/C (second compound 0.316 µM, first compound 0.000316 µM) was 77.3%, the viability, T/C (second compound 0.316 µM, first compound 0.001 µM) was 89.3% and the viability, T/C (second compound 0.316 µM, first compound 0.00316 µM) was 80.5%. The viability, T/C (second compound 0.316 µM, first compound 0.01 µM) was 82.2%, the viability, T/C [5] was 71.5% and the viability, T/C [6] was 32%. It also gave a viability, T/C (second compound 1 µM, first compound 0.000316 µM) of 70%, a viability, T/C (second compound 1 µM, first compound 0.001 µM) of 68.1% and a viability, T/C (second compound 1 µM, first compound 0.00316 µM) of 74.5%. The viability, T/C (second compound 1 µM, first compound 0.01 µM) was 79%, the viability, T/C [7] was 56% and the viability, T/C [8] was 31.4%. The viability, T/C (second compound 3.16 µM, first compound 0.000316 µM) was 72%, the viability, T/C (second compound 3.16 µM, first compound 0.001 µM) was 73.8% and the viability, T/C (second compound 3.16 µM, first compound 0.00316 µM) was 73.2%. For the same compound, the viability, T/C (second compound 3.16 µM, first compound 0.01 µM) was 57.5%, the viability, T/C [9] was 52% and the viability, T/C [10] was 24.3%. The viability, T/C (second compound 10 µM, first compound 0.000316 µM) was 56%, the viability, T/C (second compound 10 µM, first compound 0.001 µM) was 51.5% and the viability, T/C (second compound 10 µM, first compound 0.00316 µM) was 39.8%. For the same compound, the viability, T/C (second compound 10 µM, first compound 0.01 µM) was 52.9%, the viability, T/C [11] was 34.3% and the viability, T/C [12] was 21.1%.

`CCCS(=O)(=O)Nc1ccc(F)c(C(=O)c2c[nH]c3ncc(-c4ccc(Cl)cc4)cc23)c1F` + Cc1nc(NC(=O)N2CCCC2C(N)=O)sc1-c1ccnc(C(C)(C)C(F)(F)F)c1 was tested, and the IC50 (second compound 0.0316 µM) was 5750 nM, the IC50 (second compound 0.1 µM) was 5490 nM and the IC50 (second compound 0.316 µM) was 5170 nM. For the same compound, the IC50 (second compound 1 µM) was 6580 nM, the IC50 (second compound 3.16 µM) was 4640 nM and the IC50 (second compound 10 µM) was 4350 nM. The viability, T/C [1] was 106%, the viability, T/C [2] was 87.6% and the viability, T/C (second compound 0.0316 µM, first compound 0.316 µM) was 89.8%. The viability, T/C (second compound 0.0316 µM, first compound 1 µM) was 86.1%, the viability, T/C (second compound 0.0316 µM, first compound 3.16 µM) was 111% and the viability, T/C (second compound 0.0316 µM, first compound 10 µM) was 7.09%. The viability, T/C [3] was 96.3%, the viability, T/C [4] was 91.9% and the viability, T/C (second compound 0.1 µM, first compound 0.316 µM) was 82.2%. For the same compound, the viability, T/C (second compound 0.1 µM, first compound 1 µM) was 77.2%, the viability, T/C (second compound 0.1 µM, first compound 3.16 µM) was 90.2% and the viability, T/C (second compound 0.1 µM, first compound 10 µM) was 9.01%. It also gave a viability, T/C [5] of 90.7%, a viability, T/C [6] of 78.6% and a viability, T/C (second compound 0.316 µM, first compound 0.316 µM) of 70.8%. For the same compound, the viability, T/C (second compound 0.316 µM, first compound 1 µM) was 77.7%, the viability, T/C (second compound 0.316 µM, first compound 3.16 µM) was 85.5% and the viability, T/C (second compound 0.316 µM, first compound 10 µM) was 8.6%. It also gave a viability, T/C [7] of 79.5%, a viability, T/C [8] of 84.5% and a viability, T/C (second compound 1 µM, first compound 0.316 µM) of 86%. The viability, T/C (second compound 1 µM, first compound 1 µM) was 70.8%, the viability, T/C (second compound 1 µM, first compound 3.16 µM) was 80.5% and the viability, T/C (second compound 1 µM, first compound 10 µM) was 32.7%. The viability, T/C [9] was 57%, the viability, T/C [10] was 66.4% and the viability, T/C (second compound 3.16 µM, first compound 0.316 µM) was 75.9%. The viability, T/C (second compound 3.16 µM, first compound 1 µM) was 49.3%, the viability, T/C (second compound 3.16 µM, first compound 3.16 µM) was 74.3% and the viability, T/C (second compound 3.16 µM, first compound 10 µM) was 20.7%. For the same compound, the viability, T/C [11] was 58.1%, the viability, T/C [12] was 66.9% and the viability, T/C (second compound 10 µM, first compound 0.316 µM) was 60.8%. For the same compound, the viability, T/C (second compound 10 µM, first compound 1 µM) was 67.9%, the viability, T/C (second compound 10 µM, first compound 3.16 µM) was 74.1% and the viability, T/C (second compound 10 µM, first compound 10 µM) was 9.34%.
